Assay results published in ChEMBL document CHEMBL4393738, “Design of hybrid molecules as antimycobacterial compounds: Synthesis of isoniazid-naphthoquinone derivatives and their activity against susceptible and resistant strains of Mycobacterium tuberculosis” (Bioorg Med Chem, 2019).
Converted amounts (≈) assume the structure as drawn.

How the values were obtained:
[1] = Selectivity index, ratio of IC50 for mouse J774.A1 cells to MIC for Mycobacterium tuberculosis INH R1 ATCC 35822; format: toxicity; settings: read-out: Selectivity Index
[2] = Selectivity index, ratio of IC50 for mouse J774.A1 cells to MIC for Mycobacterium tuberculosis INH R2; format: toxicity; settings: read-out: Selectivity Index
[3] = tested on: J774.A1; assay: Cytotoxicity against mouse J774.A1 cells measured after 24 hrs by resazurin based assay; format: cell-based; settings: J774.A1, 24 h
[4] = Selectivity index, ratio of IC50 for mouse J774.A1 cells to MIC for Mycobacterium tuberculosis H37Rv; format: toxicity; settings: read-out: Selectivity Index

| SMILES | selectivity ratio [1] | selectivity ratio [2] | IC50 [3] | selectivity ratio [4] |
| --- | --- | --- | --- | --- |
| CC1(C)OC2=C(CC1Br)C(=O)C(=O)c1ccccc12 (stereo not given) | 0.3 | 0.6 | 1.93 µg/mL (≈ 6.01 µM) | 0.3 |
| CC1(C)OC2=C(C(=O)C(=O)c3ccccc32)C1Nc1ccccc1 (stereo not given) | 0.6 | 0.3 | 1.82 µg/mL (≈ 5.7 µM) | 0.6 |
| O=C1C(=O)c2ccccc2C2=C1CC(Cn1cc(-c3ccccc3)nn1)O2 (stereo not given) | 0.1 | 0.1 | 2.94 µg/mL (≈ 8.23 µM) | 0.2 |
| CC1CC2=C(O1)c1ccccc1/C(=N/NC(=O)c1ccncc1)C2=O (stereo not given) | > 16 | > 8 | > 200 µg/mL | > 16 |
| CC1(C)OC2=C(CC1I)C(=O)C(=O)c1ccccc12 (stereo not given) | 1 | 0.5 | 3.2 µg/mL (≈ 8.69 µM) | 1 |
| CC1(C)OC2=C(C(=O)/C(=N\NC(=O)c3ccncc3)c3ccccc32)[C@H](n2cc(-c3ccccc3)nn2)[C@H]1Br | 0.9 | < 0.9 | 175 µg/mL (≈ 300 µM) | 0.9 |
| CC1(C)CC2=C(O1)c1ccccc1/C(=N/NC(=O)c1ccncc1)C2=O | > 4 | > 32 | > 200 µg/mL | > 250 |
| CC1(C)OC2=C(CC1Br)C(=O)/C(=N\NC(=O)c1ccncc1)c1ccccc12 (stereo not given) | > 16 | > 16 | > 200 µg/mL | > 16 |
| CC1(C)OC2=C(C(=O)/C(=N\NC(=O)c3ccncc3)c3ccccc32)C1n1cc(-c2ccccc2)nn1 (stereo not given) | 8.1 | 8.1 | 101 µg/mL (≈ 207 µM) | 8.1 |
| CC1(C)OC2=C(C(=O)C(=O)c3ccccc32)C1n1cc(-c2ccccc2)nn1 (stereo not given) | 0.1 | 0.1 | 2.11 µg/mL (≈ 5.68 µM) | 0.3 |
| O=C1C2=C(OC(Cn3cc(-c4ccccc4)nn3)C2)c2ccccc2/C1=N/NC(=O)c1ccncc1 (stereo not given) | 0.4 | 0.4 | 18.4 µg/mL (≈ 38.6 µM) | 1.5 |
| CC1(C)OC2=C(C(=O)/C(=N\NC(=O)c3ccncc3)c3ccccc32)C1Nc1ccccc1 (stereo not given) | 0.7 | 3 | 74.2 µg/mL (≈ 169 µM) | 3 |
| CC1(C)OC2=C(C(=O)/C(=N\NC(=O)c3ccncc3)c3ccccc32)C1O (stereo not given) | > 1 | > 2 | > 200 µg/mL | > 32 |
| CC1(C)CC2=C(O1)/C(=N\NC(=O)c1ccncc1)c1ccccc1C2=O | 0.2 | 0.1 | 17 µg/mL (≈ 48.9 µM) | 0.7 |
| CC1(C)CCC2=C(O1)c1ccccc1/C(=N/NC(=O)c1ccncc1)C2=O | > 4 | > 32 | > 200 µg/mL | > 250 |
| CC1(C)OC2=C(CC1I)C(=O)/C(=N\NC(=O)c1ccncc1)c1ccccc12 (stereo not given) | 0.3 | 0.3 | 30.8 µg/mL (≈ 63.1 µM) | 0.3 |
| CC1(C)OC2=C(C(=O)C(=O)c3ccccc32)C1O (stereo not given) | 0.1 | 0.1 | 3.67 µg/mL (≈ 15 µM) | 0.3 |
| CC1(C)CC2=C(O1)C(=O)c1ccccc1C2=O | 0.7 | 0.7 | 18.6 µg/mL (≈ 81.6 µM) | 1.5 |
| CC1(C)OC2=C(C(=O)C(=O)c3ccccc32)[C@H](n2cc(-c3ccccc3)nn2)[C@H]1Br (racemic) | 0.2 | 0.1 | 1.47 µg/mL (≈ 3.17 µM) | 0.9 |
| CC1(C)CCC2=C(O1)C(=O)c1ccccc1C2=O [ALPHA-LAPACHONE] | – | – | 285 µg/mL (≈ 1180 µM) | – |
| CC1(C)CCC2=C(O1)c1ccccc1C(=O)C2=O [LAPACHONE] | > 64 | > 32 | > 200 µg/mL | > 32 |
| CC1(C)CC2=C(O1)c1ccccc1C(=O)C2=O [NOR-BETA-LAPACHONE] | 0.3 | 0.6 | 3.69 µg/mL (≈ 16.2 µM) | 1.2 |
